Test systems include IGROV-1; OVCAR-5; SNB-19; A549; KM12; HCT-15; SK-MEL-2; OVCAR-3; RPMI-8226; SF-268; COLO 205; UACC-257; RXF 393; A498; NCI-H522.
Experiment in all cases: growth of human tumour cells (NCI), 48 h

Structures are written as SMILES.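 Cultured in 96-well plates, cells were exposed to test compound for 48 hours across five concentrations. The concentration for 50% growth inhibition is given as GI50.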 Active and inactive are the calls of the source. Cut-off read from the data, not from the text of the source: active = GI50 up to about 1.1 µM and inactive = higher.

Turning to `Fc1cccc(Cl)c1C1SCc2nc3ccccc3n21` (stereo not drawn), the GI50 in the assay with IGROV-1 is 29.1 µM (inactive); in the assay on OVCAR-5 it was 31.8 µM (inactive); in the assay on SNB-19 it was 46.1 µM (inactive); in the assay with A549 it was 37.2 µM (inactive); in the assay on KM12, 24.8 µM (inactive); with HCT-15 it was 31.3 µM. The GI50 was 21.1 µM (inactive) with SK-MEL-2; 21.9 µM (inactive) in the assay on OVCAR-3; 17.1 µM (inactive) with RPMI-8226; 50.5 µM (inactive) in the assay with SF-268; 22.8 µM (inactive) in the assay on COLO 205; 21.9 µM (inactive) with UACC-257. Besides, the GI50 in the assay with RXF 393 is 31.6 µM (inactive); in the assay with A498, 83.2 µM (inactive); in the assay with NCI-H522, 17.3 µM (inactive).

As for `CN(C(=O)c1ccco1)C(=S)N1CCN(c2ccccn2)CC1`, the GI50 is > 100 µM (inactive) with IGROV-1; > 100 µM (inactive) with OVCAR-5; > 100 µM (inactive) in the assay with SNB-19; > 100 µM (inactive) in the assay on A549; > 100 µM (inactive) in the assay on KM12; above 100 µM in the assay with HCT-15. Further, the GI50 in the assay on SK-MEL-2, in the assay with OVCAR-3, in the assay on RPMI-8226, in the assay with SF-268, with COLO 205 and in the assay on UACC-257 was > 100 µM (inactive) each time. Besides, the GI50 in the assay on RXF 393 and with NCI-H522 was > 100 µM (inactive) throughout.

Consider `COc1cc(OC)c2c(O)cc(CC(C)O)cc2c1` (stereo not drawn), for which the GI50 is > 100 µM (inactive) in the assay on IGROV-1; > 100 µM (inactive) in the assay on OVCAR-5; > 100 µM (inactive) with SNB-19; > 100 µM (inactive) in the assay with A549; > 100 µM (inactive) with KM12; above 100 µM with HCT-15. In addition, the GI50 in the assay with SK-MEL-2, with OVCAR-3, in the assay on RPMI-8226, in the assay on SF-268, in the assay with COLO 205 and with UACC-257 was > 100 µM (inactive) each time. For the same molecule, the GI50 in the assay with RXF 393, with A498 and with NCI-H522 was > 100 µM (inactive) each time.

In the case of `CN1CCCS/C1=C1/SC(=S)N(c2ccccc2)C1=O`, the GI50 was > 100 µM (inactive) in the assay with IGROV-1; > 100 µM (inactive) in the assay on OVCAR-5; > 100 µM (inactive) with SNB-19; > 100 µM (inactive) with A549; > 100 µM (inactive) with KM12; above 100 µM in the assay on HCT-15. Further, the GI50 in the assay with SK-MEL-2, in the assay with OVCAR-3, with RPMI-8226, in the assay on SF-268, in the assay on COLO 205 and in the assay on UACC-257 was > 100 µM (inactive) each time. Also, the GI50 in the assay with RXF 393, in the assay with A498 and with NCI-H522 was > 100 µM (inactive) in each case.

As for `NC(CCCNc1ccc(O)cc1)C(=O)O` (stereo not drawn), the GI50 with IGROV-1 is 26.4 µM (inactive); in the assay with OVCAR-5, > 100 µM (inactive); in the assay with SNB-19, > 100 µM (inactive); in the assay on A549 it was > 94.2 µM (inactive); in the assay with KM12, 49.2 µM (inactive); in the assay with HCT-15, 30.1 µM. In addition, the GI50 was 31 µM (inactive) with SK-MEL-2; 18.1 µM (inactive) in the assay on OVCAR-3; 24.4 µM (inactive) in the assay with RPMI-8226; 42.8 µM (inactive) in the assay with SF-268; > 54.2 µM (inactive) with COLO 205; 27.8 µM (inactive) in the assay on UACC-257. The GI50 with RXF 393 is 26.1 µM (inactive); in the assay on A498, 41.3 µM (inactive); in the assay on NCI-H522, 61.4 µM (inactive).

Take `O=C(CCC(=O)Nc1ccc(Cl)c(Cl)c1)CC(=O)c1ccc2ccccc2c1`: the GI50 in the assay with IGROV-1 was > 100 µM (inactive); in the assay with OVCAR-5, > 100 µM (inactive); in the assay with SNB-19 it was > 100 µM (inactive); with A549 it was > 100 µM (inactive); in the assay with KM12, 82 µM (inactive); in the assay with HCT-15, 39.8 µM. In addition, the GI50 was 41.8 µM (inactive) in the assay on SK-MEL-2; > 100 µM (inactive) in the assay on OVCAR-3; 39.8 µM (inactive) in the assay with RPMI-8226; > 100 µM (inactive) in the assay with SF-268; > 100 µM (inactive) with UACC-257; > 100 µM (inactive) in the assay on RXF 393. Moreover, the GI50 is > 100 µM (inactive) in the assay on A498 and 89.5 µM (inactive) in the assay on NCI-H522.

Regarding `COc1ccc(C(c2ccccc2)(c2ccc(OC)cc2)N2C(=O)NC3C(CCCCC(=O)NCCCCCCOP(OCCC#N)N(C(C)C)C(C)C)SCC32)cc1` (stereo not drawn), the GI50 with IGROV-1 is 18.7 µM (inactive); with OVCAR-5 it was > 10 µM (inactive); in the assay on A549, 20.3 µM (inactive); in the assay with KM12, 16.2 µM (inactive); in the assay on HCT-15, 18 µM; in the assay on SK-MEL-2 it was 11.6 µM (inactive). In addition, the GI50 in the assay with OVCAR-3 is 14.8 µM (inactive); in the assay on RPMI-8226, 8.34 µM (inactive); in the assay with SF-268 it was 15.2 µM (inactive); with COLO 205, 21.6 µM (inactive); in the assay with UACC-257 it was 19.3 µM (inactive); in the assay with RXF 393, 11.7 µM (inactive). Moreover, the GI50 in the assay with A498 was 17.2 µM (inactive); in the assay with NCI-H522 it was 12.7 µM (inactive).

As to `Cn1cc2ccccc2c1-c1nc(F)nc(Nc2ccc(N)cc2)n1`, the GI50 with IGROV-1 is 12.7 µM (inactive); in the assay on OVCAR-5, 26.4 µM (inactive); in the assay with SNB-19 it was 29.3 µM (inactive); in the assay with A549, 18.1 µM (inactive); in the assay on KM12, 14 µM (inactive); with HCT-15, 4.97 µM. Besides, the GI50 in the assay on SK-MEL-2 is 13.3 µM (inactive); in the assay with OVCAR-3 it was 20.8 µM (inactive); in the assay with RPMI-8226, 13.3 µM (inactive); in the assay with SF-268 it was 20 µM (inactive); in the assay with COLO 205, > 10 µM (inactive); in the assay with UACC-257 it was 17.3 µM (inactive). The GI50 was 15.3 µM (inactive) in the assay on RXF 393, 6.93 µM (inactive) with A498 and 14.4 µM (inactive) with NCI-H522.

For `CC(C)(C)C(=O)OCC1CCC(n2cnc3c(=O)[nH]c(N)nc32)O1` (stereo not drawn), the GI50 is > 100 µM (inactive) in the assay with IGROV-1; > 100 µM (inactive) in the assay on OVCAR-5; > 100 µM (inactive) with SNB-19; > 100 µM (inactive) with A549; > 100 µM (inactive) in the assay on KM12; above 100 µM in the assay with HCT-15. Besides, the GI50 with SK-MEL-2, in the assay on OVCAR-3, in the assay with RPMI-8226, in the assay with SF-268, in the assay with COLO 205 and in the assay with UACC-257 was > 100 µM (inactive) in each case. Besides, in the assay on A498, the GI50 was > 100 µM (inactive).

Regarding `O=C(CC(=O)N1N=C(c2ccccc2)C(/N=N/c2ccccc2Cl)C1=O)Nc1ccccc1Cl` (stereo not drawn), the GI50 was 63.1 µM (inactive) in the assay with IGROV-1; > 100 µM (inactive) in the assay with OVCAR-5; 40.4 µM (inactive) in the assay on SNB-19; 21.4 µM (inactive) in the assay with A549; 14.1 µM (inactive) in the assay with KM12; 40.1 µM in the assay with HCT-15. The GI50 in the assay with SK-MEL-2 was 43.5 µM (inactive); in the assay on OVCAR-3 it was 28.1 µM (inactive); in the assay with RPMI-8226, 17.3 µM (inactive); in the assay on SF-268 it was 31.5 µM (inactive); with COLO 205, 31.6 µM (inactive); with UACC-257, 48.4 µM (inactive). For the same molecule, the GI50 was > 10 µM (inactive) in the assay with A498 and 28.9 µM (inactive) with NCI-H522.

Consider `C[C@]12CCc3nonc3C1CC[C@@H]1C2CC[C@]2(C)C(=O)CCC12` (stereo partly drawn), for which the GI50 is 67.1 µM (inactive) in the assay with IGROV-1; > 100 µM (inactive) in the assay with OVCAR-5; 81.1 µM (inactive) in the assay on SNB-19; 25.8 µM (inactive) with A549; 20.9 µM (inactive) in the assay on KM12; 31.2 µM with HCT-15. Further, the GI50 with SK-MEL-2 is 24.5 µM (inactive); in the assay on OVCAR-3, 25.5 µM (inactive); in the assay with RPMI-8226 it was 17.5 µM (inactive); with SF-268, 39.4 µM (inactive); in the assay with COLO 205 it was 24.3 µM (inactive); in the assay with UACC-257, > 10 µM (inactive). In addition, the GI50 was 35.2 µM (inactive) in the assay on RXF 393, 22.9 µM (inactive) in the assay with A498 and 19.8 µM (inactive) in the assay on NCI-H522.

`CC1=C2N3C[C@@H](n4c(=O)n(C)c(=O)n43)C23CCC1n1c(=O)n(C)c(=O)n13`: the GI50 in the assay on IGROV-1 is > 100 µM (inactive); in the assay with OVCAR-5 it was > 100 µM (inactive); in the assay on SNB-19, > 100 µM (inactive); in the assay with KM12, > 100 µM (inactive); with HCT-15 it was 24.7 µM; with RPMI-8226, 42.7 µM (inactive). Further, the GI50 in the assay on SF-268 is > 100 µM (inactive); in the assay with COLO 205, 48 µM (inactive); with UACC-257 it was > 100 µM (inactive); in the assay with A498, > 100 µM (inactive).

`COc1cccc2c1C(=O)c1c(O)c3c(c(O)c1C2=O)C[C@](O)(C(=O)CO)CC3OC1CC(N)C(OC2CCCCO2)C(C)O1` (stereo partly drawn): the GI50 was 0.424 µM (active) with IGROV-1; 0.293 µM (active) in the assay with OVCAR-5; 0.0948 µM (active) with SNB-19; < 0.01 µM (active) with A549; 0.375 µM (active) in the assay with KM12; 0.47 µM in the assay with HCT-15. Besides, the GI50 in the assay with SK-MEL-2 was 1.05 µM (active); in the assay on OVCAR-3, 0.828 µM (active); in the assay on RPMI-8226, 0.112 µM (active); in the assay on SF-268, 0.293 µM (active); in the assay on COLO 205, 0.329 µM (active); in the assay on UACC-257, 0.995 µM (active). Besides, the GI50 was 0.43 µM (active) in the assay on RXF 393, < 0.0411 µM (active) in the assay on A498 and 0.356 µM (active) in the assay with NCI-H522.

Take `COc1cccc2c1C(=O)c1c(O)c3c(c(O)c1C2=O)C[C@@](O)(C(=O)CO)CC3OC1CC(NCCCC(OC(C)=O)OC(C)=O)C(O)C(C)O1` (stereo partly drawn): the GI50 in the assay with IGROV-1 is 0.006 µM (active); with OVCAR-5, 0.00267 µM (active); in the assay with SNB-19 it was 0.00246 µM (active); in the assay with A549, 0.00333 µM (active); in the assay with KM12 it was 0.00279 µM (active); in the assay on HCT-15 it was 0.00225 µM. Moreover, the GI50 with SK-MEL-2 is 0.00192 µM (active); in the assay with OVCAR-3 it was 0.0045 µM (active); in the assay with RPMI-8226, 0.00322 µM (active); in the assay on SF-268, 0.00305 µM (active); in the assay with UACC-257 it was 0.00269 µM (active); in the assay with RXF 393, 0.00172 µM (active). In addition, the results for the GI50 in the assay with A498 and in the assay with NCI-H522 were 0.0019 µM (active) and 0.00129 µM (active), respectively.

For the origin of these results see ChEMBL document CHEMBL1201862, “PubChem BioAssay data set” (2004).
